Experimental data as given in PubChem BioAssay AID248 (DTP/NCI, 2004).
“And” between values parts separate entries of the source, which are not always exact repeats. Identical values can stand only once. Inconclusive results and toxic doses are left out. Cut-off read from the data, not from the text of the source: active = T/C of 150% or more; inactive = T/C below 125%.

System: L1210 leukemia ip in BDF1 mice, survival T/C
Test: NCI In Vivo Anticancer Drug Screen. Data for tumor model L1210 Leukemia (intraperitoneal) in B6D2F1 (BDF1) mice
Conditions: endpoint: mean survival time, higher = longer survival
Outline: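 Tumor was transplanted into mice, which were then dosed with test compound or vehicle alone. Survival was recorded for each group, and the treated figure was expressed relative to the control figure.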

[1] = dose: 100.0 mg/kg/injection, schedule: Q04DX003 (ip), vehicle: saline
[2] = dose: 200.0 mg/kg/injection, schedule: Q04DX003 (ip), vehicle: saline
[3] = dose: 50.0 mg/kg/injection, schedule: Q01DX009 (ip), vehicle: saline with Tween-80
[4] = dose: 100.0 mg/kg/injection, schedule: Q01DX009 (ip), vehicle: saline with Tween-80
[5] = dose: 200.0 mg/kg/injection, schedule: Q01DX009 (ip), vehicle: saline with Tween-80
[6] = dose: 50.0 mg/kg/injection, schedule: Q01DX001 (ip), vehicle: saline
[7] = dose: 100.0 mg/kg/injection, schedule: Q01DX001 (ip), vehicle: saline
[8] = dose: 200.0 mg/kg/injection, schedule: Q01DX001 (ip), vehicle: saline
[9] = dose: 400.0 mg/kg/injection, schedule: Q01DX001 (ip), vehicle: saline
[10] = dose: 50.0 mg/kg/injection, schedule: Q01DX001 (ip), vehicle: carboxymethylcellulose (CMC)
[11] = dose: 400.0 mg/kg/injection, schedule: Q01DX001 (ip), vehicle: carboxymethylcellulose (CMC)
[12] = dose: 25.0 mg/kg/injection, schedule: Q04DX003 (ip), vehicle: saline with Tween-80
[13] = dose: 50.0 mg/kg/injection, schedule: Q04DX003 (ip), vehicle: saline with Tween-80
[14] = dose: 100.0 mg/kg/injection, schedule: Q04DX003 (ip), vehicle: saline with Tween-80
[15] = dose: 400.0 mg/kg/injection, schedule: Q01DX009 (ip), vehicle: saline with Tween-80
[16] = dose: 200.0 mg/kg/injection, schedule: Q04DX003 (ip), vehicle: saline with Tween-80

Measured: T/C

CN(C)C(CCc1ccccc1)C(=O)O (stereo not drawn)
inactive: dose: 100.0 mg/kg/injection, schedule: Q01DX009 (ip), vehicle: saline sonified 102 % of control | [1] 102 % of control | dose: 200.0 mg/kg/injection, schedule: Q01DX009 (ip), vehicle: saline sonified 95 % of control | [2] 109 % of control | dose: 400.0 mg/kg/injection, schedule: Q01DX009 (ip), vehicle: saline sonified 101 % of control | dose: 400.0 mg/kg/injection, schedule: Q04DX003 (ip), vehicle: saline 109 % of control

Cc1cccc(S(=O)(=O)F)c1
inactive: [3] 91 % of control | [4] 100 % of control | dose: 100.0 mg/kg/injection, schedule: Q04DX003 (ip), vehicle: acetone 101 % of control | [5] 88 % of control | dose: 200.0 mg/kg/injection, schedule: Q04DX003 (ip), vehicle: acetone 97 % of control

NC1CCc2ccccc2-c2ccccc21 (stereo not drawn)
inactive: dose: 10.0 mg/kg/injection, schedule: Q01DX001 (ip), vehicle: saline 101 % of control | dose: 20.0 mg/kg/injection, schedule: Q01DX001 (ip), vehicle: saline 108 % of control | dose: 40.0 mg/kg/injection, schedule: Q01DX001 (ip), vehicle: saline 101 % of control

CN(C)C(=S)SCN1CCCCC1
inactive: dose: 100.0 mg/kg/injection, schedule: Q01DX009 (ip), vehicle: Klucel (hydroxypropylcellulose) (HPC) 103 % of control | dose: 100.0 mg/kg/injection, schedule: Q04DX003 (ip), vehicle: Klucel (hydroxypropylcellulose) (HPC) 96 % of control | dose: 200.0 mg/kg/injection, schedule: Q01DX009 (ip), vehicle: Klucel (hydroxypropylcellulose) (HPC) 97 % of control | dose: 200.0 mg/kg/injection, schedule: Q04DX003 (ip), vehicle: Klucel (hydroxypropylcellulose) (HPC) 104 % of control | dose: 400.0 mg/kg/injection, schedule: Q04DX003 (ip), vehicle: Klucel (hydroxypropylcellulose) (HPC) 107 % of control

O=[As](O)(O)c1ccccc1Br
inactive: dose: 75.0 mg/kg/injection, schedule: Q01DX001 (ip), vehicle: saline 111 % of control | dose: 150.0 mg/kg/injection, schedule: Q01DX001 (ip), vehicle: saline 105 % of control | dose: 300.0 mg/kg/injection, schedule: Q01DX001 (ip), vehicle: saline 102 % of control

O=C1NC(=O)C(c2ccc(Cl)cc2)N1 (stereo not drawn)
inactive: [6] 100 % of control | [7] 94 % of control | [8] 97 % of control | [9] 96 % of control

CCOc1ccc(NC2=C(OC)C(=O)C(Nc3ccc(OCC)cc3)=C(OC)C2=O)cc1
inactive: [10] 99 % of control | [11] 93 % of control

CC(C)=NNS(=O)(=O)c1ccccc1
inactive: [3] 106 % of control | [4] 108 % of control | [5] 101 % of control

CC1=C[P+](C)(Cc2ccccc2)CC1 (stereo not drawn)
inactive: [7] 100 % of control

Cc1cc(NS(=O)(=O)c2ccc(N=Nc3c(N)[nH]c(=O)[nH]c3=O)cc2)nc(C)n1
inactive: [7] 115 % of control | [8] 96 % of control | [9] 93 % of control

CCCCCCCC1N(C)CCCN1C
inactive: dose: 25.0 mg/kg/injection, schedule: Q01DX009 (ip), vehicle: saline with Tween-80 88 % of control | [12] 93 % of control | [3] 95 % of control | [13] 96 % of control | [14] 95 % of control and 92 % of control

COc1c(NC(=O)c2ccc(Cl)c(Cl)c2)cccc1[N+](=O)[O-]
inactive: [4] 89 % of control | [5] 89 % of control | [15] 89 % of control

CCC[P+](c1ccccc1)(c1ccccc1)c1ccccc1
inactive: dose: 3.13 mg/kg/injection, schedule: Q01DX009 (ip), vehicle: saline with Tween-80 123 % of control | dose: 3.13 mg/kg/injection, schedule: Q04DX003 (ip), vehicle: saline with Tween-80 102 % of control | dose: 5.56 mg/kg/injection, schedule: Q01DX009 (ip), vehicle: saline with Tween-80 118 % of control | dose: 6.25 mg/kg/injection, schedule: Q01DX009 (ip), vehicle: saline with Tween-80 118 % of control | dose: 6.25 mg/kg/injection, schedule: Q04DX003 (ip), vehicle: saline with Tween-80 96 % of control | dose: 8.33 mg/kg/injection, schedule: Q01DX009 (ip), vehicle: saline with Tween-80 121 % of control | dose: 9.5 mg/kg/injection, schedule: Q01DX001 (ip), vehicle: other 111 % of control | dose: 12.5 mg/kg/injection, schedule: Q01DX001 (ip), vehicle: carboxymethylcellulose (CMC) 101 % of control | dose: 12.5 mg/kg/injection, schedule: Q04DX003 (ip), vehicle: saline with Tween-80 105 % of control | dose: 12.5 mg/kg/injection, schedule: Q04DX003 (ip), vehicle: saline 100 % of control | dose: 18.75 mg/kg/injection, schedule: Q01DX009 (ip), vehicle: saline with Tween-80 120 % of control | dose: 19.0 mg/kg/injection, schedule: Q01DX001 (ip), vehicle: other 102 % of control | dose: 25.0 mg/kg/injection, schedule: Q01DX001 (ip), vehicle: carboxymethylcellulose (CMC) 104 % of control | [12] 105 % of control | dose: 25.0 mg/kg/injection, schedule: Q04DX003 (ip), vehicle: saline 108 % of control | dose: 38.0 mg/kg/injection, schedule: Q01DX001 (ip), vehicle: other 107 % of control | [10] 99 % of control | [13] 105 % of control

O=C(CI)c1ccc[nH]1
inactive: [6] 100 % of control | [7] 100 % of control | [8] 103 % of control

CC(=NC1CC(C)CC(C)(C)C1)C1CC1 (stereo not drawn)
inactive: dose: 55.0 mg/kg/injection, schedule: Q01DX Z (ip), vehicle: methylcellulose (MC) 100 % of control | dose: 83.0 mg/kg/injection, schedule: Q01DX Z (ip), vehicle: methylcellulose (MC) 89 % of control | dose: 125.0 mg/kg/injection, schedule: Q01DX Z (ip), vehicle: methylcellulose (MC) 100 % of control

C/C=C(/C#N)c1ccccc1
inactive: [3] 107 % of control | [4] 106 % of control | [14] 90 % of control | [5] 100 % of control | [16] 96 % of control

COc1cc(CNCc2cc(OC)c(OC)c(OC)c2)cc(OC)c1OC
inactive: [6] 102 % of control | [7] 102 % of control

CC(C)CCO[Si](C)(C)CCl
inactive: [10] 103 % of control | dose: 100.0 mg/kg/injection, schedule: Q01DX001 (ip), vehicle: carboxymethylcellulose (CMC) 103 % of control | dose: 200.0 mg/kg/injection, schedule: Q01DX001 (ip), vehicle: carboxymethylcellulose (CMC) 97 % of control | [11] 103 % of control

Nc1ccc(S(=O)(=O)Nc2ccc(N(CCCl)CCCl)cc2)cc1
inactive: [4] 108 % of control | [14] 105 % of control | [5] 113 % of control | [16] 103 % of control | [15] 111 % of control | dose: 400.0 mg/kg/injection, schedule: Q04DX003 (ip), vehicle: saline with Tween-80 102 % of control

O=C(CCl)NCc1cnccn1
inactive: dose: 50.0 mg/kg/injection, schedule: Q01DX009 (ip), vehicle: saline 95 % of control | dose: 100.0 mg/kg/injection, schedule: Q01DX009 (ip), vehicle: saline 107 % of control | [1] 98 % of control | [2] 104 % of control
